This note sets out measurements from patent US5399586A, “Treatment of mammals afflicted with tumors with compounds having RXR retinoid receptor agonist activity” (Allergan, Inc., priority 1993, dated 1995).

The subject of assay [1] is chimeric RXRα receptor protein. As to the kind of experiment: Cationic Liposome Mediated Transfection Assay, RXRα. Type of assay: cell-based. The procedure: (§1) The above-mentioned Cationic Liposome Mediated Transfection Assay assay by which the activity of a test compound as a potential agonist of the RXR and RAR receptor sites is determined, is performed substantially as reported by Feigner P. L. and Holm M. (1989) Focus, 11-2, and is described below first in principle and thereafter in the form of specific instructions how to perform the assay.
(§2) In connection with this assay it is known that retinoic acid receptors arena member of the steroid/thyroid receptor super family and that they contain domains which are interchangeable within individual receptors. Thus, plasmids for chimeric retinoid receptors containing estrogen DNA binding domain and estrogen response element chloramphenicol acetyl-transferase enzyme are constructed and are grown in specific cultured bacteria. These plasmids respectively code for chimeric RARα, RARβ, RARγ, RXRα receptor proteins, and for the chloramphenicol acetyl A transferase (CAT) enzyme protein. The bacteria with these plasmids are obtainable in accordance with the procedure set forth in the article titled "Nuclear Retinoic Acid Receptors: Cloning, Analysis, and Function", M. Pfahl et al , Methods in Enzymology 189, p 256-270 (1990) which is incorporated herein by reference. The detailed procedure how to isolate the DNA plasmids from the respective bacteria is also set forth below in detail, in the form of specific instructions under the title "Supercoiled Plasmid Isolation".
Thus, in accordance with the test procedure, DNA plasmid which codes for one of the chimeric RARα, RARβ, RARγ, or RXRα receptor proteins is transfected into cultures of HeLa cells. It is for this purpose that HeLa cells are grown in a medium during the first day of the assay detailed below as the "Cationic Liposome Mediated Transfection Assay". In the transfection procedure, which is performed during the second day of the transfection assay, the DNA plasmid coding for the CAT enzyme is also added to each cell culture, in addition to the respective chimeric RARα, or RARβ etc. coding plasmid. As is known and will be readily understood by those skilled in the art, especially in view of the above-cited M. Pfahl et al. article, chimeric retinoid receptors involved in this assay include a ligand binding domain which recognizes and binds specific agonist molecules, such as retinoic acid and analogs. These chimeric protein receptors (which were constructed in accordance with the teachings of the M. Pfahl. et al, article) also contain a a DNA binding domain, which is capable of binding to the "estrogen response element" (a DNA fragment) attached to the DNA plasmid coding for the CAT enzyme. […]

Assay [2] relates to RAR and RXR receptor sites. As to the kind of experiment: RAR versus RXR agonist specificity (in words). It is filed as cell-based. The following applies: result in words. The procedure: The data obtained in the assay are evaluated and expressed as follows. For each test compound and for each subspecies of the RAR receptors a graph (or the mathematical equivalent of a graph) is prepared where the "counts per minute" (cpm) obtained in the scintillation counter measurements are plotted (on the y axis) against the concentration of the test compound. A similar graph (or mathematical equivalent) is prepared for retinoic acid. […] This is illustrated in the graphs of FIG. 1 and FIG. 3.
This reference compound is a known agonist of the RXRα receptor site.

Assay [3] has as its system human myeloid leukemia (HL-60 cdm1-1) cells. As to the kind of experiment: Induction of apoptotic cell death in HL-60 cdm-1 cells (general statement). It is filed as cell-based. As to conditions: compared with ethanol control. The procedure: In the assay, the human myeloid leukemia (HL-60 cdm1-1) cells are grown in cultures, and an RXR agonist compound, such as Compound 1 (AGN 191701) or Compound 3 (AGN 191659), is added to the culture.

In assay [4] the test system is HL-60 cdm-1 cells. As to the kind of experiment: Assay 1: HL-60 cdm-1 cell count and microscopy after 72 hours. It is filed as cell-based, human. The following applies: 1 uM; for cell counts: control 5.1 × 10^+5 / ml; for inspection of microscope slides: versus control. The text has this:
Sedimented cells were air dried, fixed in absolute methanol, stained with a Diff-quick reagent kit, mounted in Permount and visualized by brightfield light microscopy.

Assay [5] concerns chimeric RARα receptor protein. Briefly: Cationic Liposome Mediated Transfection Assay, RARα. Type of assay: cell-based. As to conditions: Table 1; 50% of maximum CAT activity of all-trans retinoic acid; HeLa cells. The procedure: as §1
In connection with this assay it is known that retinoic acid receptors arena member of the steroid/thyroid receptor super family and that they contain domains which are interchangeable within individual receptors. Thus, plasmids for chimeric retinoid receptors containing estrogen DNA binding domain and estrogen response element chloramphenicol acetyl-transferase enzyme are constructed and are grown in specific cultured bacteria. […]
(§3) Thus, in accordance with the test procedure, DNA plasmid which codes for one of the chimeric RARα, RARβ, RARγ, or RXRα receptor proteins is transfected into cultures of HeLa cells. […] As is known and will be readily understood by those skilled in the art, especially in view of the above-cited M. Pfahl et al. article, chimeric retinoid receptors involved in this assay include a ligand binding domain which recognizes and binds specific agonist molecules, such as retinoic acid and analogs. […]

The test system of assay [6] is chimeric RARβ receptor protein. Briefly: Cationic Liposome Mediated Transfection Assay, RARβ. Type of assay: cell-based. As to conditions: Table 1; 50% of maximum CAT activity of all-trans retinoic acid; HeLa cells. The procedure:
as §1, §2, §3

Assay [7] deals with chimeric RARγ receptor protein. Briefly: Cationic Liposome Mediated Transfection Assay, RARγ. Type of assay: cell-based. As to conditions: Table 1; 50% of maximum CAT activity of all-trans retinoic acid; HeLa cells. The procedure: as §1, §2, §3
Assay [8] has as its system HL-60 cdm-1 cells. As to the kind of experiment: Assay 2: DNA fragmentation (laddering) in HL-60 cdm-1 cells. Type of assay: cell-based, human. As to conditions: 1 μM, 48 hours; 1% agarose gel. The procedure: HL-60 cdm-1 cells were placed in a T-25 tissue culture flask in 8 ml of media (RPMI-1640 containing bovine insulin 5 mg/L, human transferin 5 mg/L and Na Selenite 5 μg/L) at a density of 2×10^5 cells/ml. AGN 191701 (Compound 1) was added to a final concentration of 1 μM (8 μl of a 1 mM stock solution) and the cells were cultured in a humidified incubator (5% CO2) at 37° C. in the dark for 48 hours. The media and cells were removed from the flask, the cells were pelleted (1100 rpm/7 min Beckman desk top centrifuge), the pellet was washed once with phosphate buffered saline (PBS) and then the pelleted cells were lysed by the addition of 200 μl of a solution containing 20 mM Tris-HCl pH 7.4, 0.4 mM EDTA, 0.4% Triton X-100. The lysate was centrifuged for 5 minutes in a microfuge (14,000 rpm) and the supernatant adjusted to a final concentration of 0.5M NaCl and 50% isopropanol. The solution was allowed to precipitate overnight at -20° C. and the precipitate that formed was pelleted in a microfuge (10 min, 14,000 rpm). The pellet was washed once in 70% ethanol, it was resuspended in 50 μl Tris EDTA (10 mM Tris HCl ph 7.4, 0.4 mM EDTA) and mixed with gel loading buffer. […] DNA was detected by ethidium bromide staining followed by visualization and photography under a UV lamp.

The subject of assay [9] is HL-60 cdm-1 cells. Briefly: Assay 3: morphology of HL-60 cdm-1 cells at 4 hours, 48 hours, 6 days. Type of assay: cell-based, human. The following applies: 3 μl of 1 mM stock in 3 ml. The procedure: HL-60 cdm-1 cells were plated in a 6-well tissue culture plate (Falcon) in 3 ml of media (RPMI-1640 containing bovine insulin 5 mg/L, human transferrin 5 mg/L and Na Selenite 5 μg/L) at a density of 1×10^5 cells/ml. Duplicate wells received either ethanol (3 μl) or 3 μl of a stock solution of AGN 191701 (Compound 1, 1 mM in ethanol). The cells were cultured in a humidified incubator (5% CO2) at 37° C. in the dark for either 4 hours, 48 hours or 6 days. At the indicated times an aliquot of the cells (50 μl) was sedimented onto a microscope slide using a cytospin centrifuge. Sedimented cells were air dried, fixed in absolute methanol, stained with a Diffquick reagent kit, mounted in permount and visualized by brightfield light microscopy.

Setting [10] is: Table 1; 50% of maximum CAT activity of AGN 191440; HeLa cells; read-out: EC50 RXRα.

Where two headings read alike, the source gives them in different places.

One may read the EC50 as the midpoint of the concentration-response curve. Turning to `C/C(=C\c1ccc(C(=O)O)cc1)c1ccc2c(c1)C(C)(C)CCC2(C)C` [Compound 4, reference compound], the concentration for a half-maximal effect (EC50) in [1] (read-out: EC50 RXRα; Table 1; 50% of maximum CAT activity of AGN 191440; HeLa cells) is over 10000 nM. In assay [2], the “RAR / RXR agonist specificity” value is given as “specific RAR agonist” and the “activity at RXR receptor sites” value is recorded as “not active at RXR receptor sites”. For the same molecule, in assay [3], the apoptotic cell death entry was “not active and not”. For the same molecule, in the assay on HL-60 cdm-1 cells [4], the cell counts worked out at 460000 mL⁻¹ and the “inspection of microscope slides” value is given as “no difference between the control”.

For the molecule `C/C(=C\c1ccc(C(=O)O)s1)c1cc2c(cc1C)C(C)(C)CCC2(C)C` [Compound 3, 2-[(E)-2-(5,6,7,8-tetrahydro-3,5,5,8-pentamethylnaphthalen-2-yl)propen-1-yl]-5-thiophenecarboxylic acid], the concentration giving a half-maximal response (EC50) is over 1000 nM in assay [5], 23 nM in assay [6], 153 nM in assay [7] and 11.2 nM in [1] (setting [10]). Moreover, the “RAR / RXR agonist specificity” value in assay [2] is listed as “pan-agonist”.

Take `C/C(=C\c1cc(C(=O)O)cs1)c1cc2c(cc1C)C(C)(C)CCC2(C)C` [Compound 1, 2-[(E)-2-(5,6,7,8-tetrahydro-3,5,5,8,8-pentamethylnaphthalen-2-yl)propen-1-yl]thiophene-4-carboxylic acid]: the half-maximal effective concentration (EC50) in [6] was 3350 nM; in assay [7] it was 1070 nM; in [1] (setting [10]), 67 nM. In addition, the “RAR / RXR agonist specificity” value in assay [2] was “RXR specific agonist”. In the assay with HL-60 cdm-1 cells [4], this molecule displayed a cell counts of 70000 mL⁻¹. In addition, the “inspection of microscope slides” value with HL-60 cdm-1 cells [4] was “extensive cell death, almost all cells died”. In the assay on HL-60 cdm-1 cells [8], the “DNA fragmentation (laddering)” value is “pattern of DNA fragmentation”. Also, in the assay with HL-60 cdm-1 cells [9] (4 hours), the “cell morphology at 4 hours” value was “nuclear pyknosis and nuclear as well as cytoplasmic hyperchromicity with the formation of cytoplasmic extensions (large blobs)”. Also, in the assay with HL-60 cdm-1 cells [9] (48 hours), the “cell morphology at 48 hours” value is recorded as “extensive cell death with numerous hyperchromatic nuclear fragments either free in the media or contained with shrunken cell remnants”. In the assay with HL-60 cdm-1 cells [9] (6 days), the “cell morphology after 6 days” value is given as “the same hyperchromatic nuclear remnants are detected but in addition there are scattered multinucleated syncitial cells”.

In the case of `C/C(=C\c1ccc(C(=O)O)cc1)c1cc2c(cc1C)C(C)(C)CCC2(C)C` [Compound 2, reference compound], the concentration giving a half-maximal response (EC50) was determined as 3160 nM in assay [5], 101 nM in [6], 364 nM in [7] and 448 nM in assay [1] (setting [10]).
